The values that follow come from patent publication US20230175029A1, “ENZYME CASCADES BASED ON SUCROSE SYNTHASE AND PYROPHO[…] CONVERSION OF ADP TO ATP” (RHEINISCH-WE[…]-NISCHE HOCHSCHULE (RWTH) AACHEN, priority 2020, published 2023).

In assay [1] the target is T1, EcAGPase (Escherichia coli, UniProt P0A6V1). The assay is described as follows: Influence of Fru-1,6-P2 concentration on activity of EcAGPase. Type of assay: biochemical, E. coli. Further details: His6; made in house; host or cells: E. coli BL21 (DE3), vector pET22b. As to conditions: for EcAGPase activity: 3 mM ADP-Glc, 3 mM PPi, pH 8, 37° C. Here is the method: Fru-1,6-P2 was used as an activator for EcAGPase. It is Fru-1,6-P2 a relatively expensive compound and its use in the EcAGPase reaction should be reduced as much as possible. Therefore, the activity of EcAGPase was investigated for different Fru-1,6-P2 concentrations to determine a minimum concentration of the activator.
T1 sequence (P0A6V1 whole entry): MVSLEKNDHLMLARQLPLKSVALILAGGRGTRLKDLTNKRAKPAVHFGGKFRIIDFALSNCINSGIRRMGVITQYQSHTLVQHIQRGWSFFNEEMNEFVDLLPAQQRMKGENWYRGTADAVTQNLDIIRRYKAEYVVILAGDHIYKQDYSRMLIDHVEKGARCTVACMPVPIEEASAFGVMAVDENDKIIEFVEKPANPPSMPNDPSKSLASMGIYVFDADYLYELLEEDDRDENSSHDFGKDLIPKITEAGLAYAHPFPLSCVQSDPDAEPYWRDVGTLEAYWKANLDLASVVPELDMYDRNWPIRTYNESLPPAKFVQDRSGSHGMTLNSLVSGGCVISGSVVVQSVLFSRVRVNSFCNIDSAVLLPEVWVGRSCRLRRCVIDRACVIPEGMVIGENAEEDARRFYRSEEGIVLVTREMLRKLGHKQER
The experiment included 3.9 μg/mL EcAGPase, 3 mM ADP-Glc, 3 mM PPi, 10 mM MgCl2 and Fru-1,6-P2 at concentrations ranging from 0.1 mM to 1 mM, as well as a control reaction without Fru-1,6-P2.

Assay [2] addresses T1, EcAGPase. The assay is described as follows: Effect of Glc-1-P on ATP synthesis activity of EcAGPase. It is filed as biochemical, E. coli. Further details: His6; made in house; host or cells: E. coli BL21 (DE3), vector pET22b. The settings on record: 3 mM ADP-Glc, 3 mM PPi. The source says:
The EcAGPase prefers the ADP-Glc synthesis. Thus, the accumulation of Glc-1-P negatively affects the reaction equilibrium for ATP synthesis. Therefore, the effect of Glc-1-P on the ATP synthesis activity of EcAGPase was investigated.

Assay [3] has as its target T1, EcAGPase. As to conditions: 2.5 mM ADP-Glc, 1 mM Fru-1,6-P2, pH 8, 37° C. How it is done:
The influence of PPi concentrations on the ATP synthesis activity of the EcAGPase used was investigated.
The experiment included 4.35 μg/mL EcAGPase, 2.5 mM ADP-Glc, 10 mM MgCl2, 1 mM Fru-1,6-P2 and PPi, at concentrations ranging from 0.75 mM to 10 mM, and a control reaction without PPi. ATP synthesis was performed in 600 μL of 100 mM HEPES buffer, pH 8 at 37° C. for 12 min. The synthesis was stopped at the respective measurement points with 28 mM SDS (final concentration 7 mM) and the analysis of the nucleotides (ADP-Glc, AMP, ADP, ATP) was performed by multiplex capillary electrophoresis (internal standards (final concentrations): 1 mM para-aminobenzoic acid and 1 mM 4-aminophthalic acid) and the analytes were detected at 254 nm.

The structures appear in SMILES notation. pIC50: −log10 of the molar value.

For the molecule `O=C(COP(=O)(O)O)[C@@H](O)[C@H](O)[C@H](O)COP(=O)(O)O` [Fru-1,6-P2, fructose-1,6-bisphosphate], the EcAGPase activity on EcAGPase [1] (0.25 mM Fru-1,6-P2) turned out to be 20 U/mg. On EcAGPase [1] (0.5 mM Fru-1,6-P2), the “EcAGPase activity, fold higher than without activator” value was determined as 12 fold and the EcAGPase activity is 60 U/mg.
A word on the pIC50: it is the negative decadic logarithm of the IC50, by convention in mol/L. A higher pIC50 goes with a small IC50. In general, residual activity refers to what remains of the control signal, in per cent. Lower therefore signals a large loss of activity. In the case of `O=P(O)(O)O[C@H]1O[C@H](CO)[C@@H](O)[C@H](O)[C@H]1O` [Glc-1-P, glucose-1-phosphate], the “activity of the enzyme relative to activity without addition of Glc-1-P” value on EcAGPase [2] (1 mM Glc-1-P, 0.5 mM Fru-1,6-P2) was 71%. Besides, the pIC50 on EcAGPase [2] (0.5 mM Fru-1,6-P2, pH 8, 37° C.) is 2.75. Moreover, the residual activity at EcAGPase [2] (5 mM Glc-1-P, 0.5 mM Fru-1,6-P2) was 27%.
Take `O=P(O)(O)OP(=O)(O)O` [PPi, inorganic pyrophosphate]: the “PPi concentration at which EcAGPase shows a reduction in specific activity” value at EcAGPase [3] was “above 3 mM”. In addition, on EcAGPase [3] (7 mM PPi), the “specific activity of EcAGPase” value worked out at 0.6 U/mg.
